Measured values reported in the CheMixHub viscosity set.

Assay: xn = mol fraction of the nth substance listed

CC(C)CC(C)(C)C + CCCCCCCCCCCC
viscosity [mPa·s]
Settings | 298.15 K | 323.14 K
100 kPa, x1 = 0.5 | 0.8601 | 0.6179
101 kPa, x1 = 0.0923 | 1.236 | –
101 kPa, x1 = 0.1569 | 1.169 | –
101 kPa, x1 = 0.2503 | 1.085 | –
101 kPa, x1 = 0.3747 | 0.9632 | –
101 kPa, x1 = 0.4786 | 0.8653 | –
101 kPa, x1 = 0.5889 | 0.7696 | –
101 kPa, x1 = 0.6762 | 0.7013 | –
101 kPa, x1 = 0.7597 | 0.6346 | –
101 kPa, x1 = 0.8459 | 0.5724 | –
101 kPa, x1 = 0.9062 | 0.5377 | –
101 kPa, x1 = 0.9457 | 0.5099 | –
101 kPa, x1 = 0.9733 | 0.4948 | –

CCCCCCCCCCCCCC[P+](CCCCCC)(CCCCCC)CCCCCC.c1nnc[n-]1 + O
Settings | viscosity [mPa·s]
298.15 K, 100 kPa, x2 = 0.7956 | 114

O=C1CCCCC1 + c1ccccc1
viscosity [mPa·s]
Settings | 298.15 K | 303.15 K | 308.15 K
101 kPa, x1 = 0.0989 | 0.674 | – | –
101 kPa, x1 = 0.1983 | 0.731 | – | –
101 kPa, x1 = 0.2984 | 0.8 | – | –
101 kPa, x1 = 0.3848 | 0.865 | – | –
101 kPa, x1 = 0.5166 | 0.856 | – | –
101 kPa, x1 = 0.5909 | 1.086 | – | –
101 kPa, x1 = 0.6876 | 1.37 | – | –
101 kPa, x1 = 0.7775 | 1.481 | – | –
101 kPa, x1 = 0.8574 | 1.534 | – | –
101.33 kPa, x1 = 0.1014 | 0.661 | 0.616 | 0.574
101.33 kPa, x1 = 0.1996 | 0.726 | 0.676 | 0.629
101.33 kPa, x1 = 0.3037 | 0.803 | 0.747 | 0.694
101.33 kPa, x1 = 0.4039 | 0.888 | 0.824 | 0.771
101.33 kPa, x1 = 0.502 | 0.996 | 0.942 | 0.85
101.33 kPa, x1 = 0.5997 | 1.122 | 1.026 | 0.945
101.33 kPa, x1 = 0.7018 | 1.28 | 1.175 | 1.084
101.33 kPa, x1 = 0.8023 | 1.472 | 1.346 | 1.236
101.33 kPa, x1 = 0.9237 | 1.773 | 1.61 | 1.472

O=C1CCCCC1 + CCCCCCCC
viscosity [mPa·s]
Settings | 298.15 K | 303.15 K | 308.15 K
101 kPa, x2 = 0.0833 | 1.59 | – | –
101 kPa, x2 = 0.1727 | 1.31 | – | –
101 kPa, x2 = 0.3177 | 1.023 | – | –
101 kPa, x2 = 0.4682 | 0.829 | – | –
101 kPa, x2 = 0.6244 | 0.693 | – | –
101 kPa, x2 = 0.7825 | 0.602 | – | –
101 kPa, x2 = 0.8935 | 0.55 | – | –
101.33 kPa, x1 = 0.0981 | 0.537 | 0.505 | 0.479
101.33 kPa, x1 = 0.2053 | 0.583 | 0.547 | 0.516
101.33 kPa, x1 = 0.3022 | 0.635 | 0.595 | 0.559
101.33 kPa, x1 = 0.4042 | 0.706 | 0.658 | 0.618
101.33 kPa, x1 = 0.5032 | 0.787 | 0.733 | 0.686
101.33 kPa, x1 = 0.603 | 0.895 | 0.831 | 0.774
101.33 kPa, x1 = 0.7025 | 1.039 | 0.96 | 0.894
101.33 kPa, x1 = 0.8021 | 1.264 | 1.165 | 1.054
101.33 kPa, x1 = 0.8984 | 1.508 | 1.38 | 1.271

CC(=O)CC(C)C + ClC(Cl)Cl
298.15 K, 101 kPa
Settings | viscosity [mPa·s]
x2 = 0.0813 | 0.5611
x2 = 0.1599 | 0.5799
x2 = 0.2352 | 0.5986
x2 = 0.3916 | 0.6341
x2 = 0.497 | 0.6494
x2 = 0.6114 | 0.6521
x2 = 0.7252 | 0.6349
x2 = 0.864 | 0.5903
x2 = 0.9291 | 0.5613

CC(C)CC(=O)CC(C)C + CCCC(C)O
viscosity [mPa·s], 100 kPa
Settings | x1 = 0.0794 | x1 = 0.1627 | x1 = 0.2381 | x1 = 0.3487 | x1 = 0.4381 | x1 = 0.5619 | x1 = 0.6565 | x1 = 0.7364 | x1 = 0.8517 | x1 = 0.9341
293.15 K | 3.12 | 2.32 | 1.78 | 1.18 | 0.84 | 0.58 | 0.51 | 0.55 | 0.71 | 0.85
298.15 K | 2.63 | 1.94 | 1.43 | 0.89 | 0.62 | 0.43 | 0.4 | 0.47 | 0.66 | 0.81
303.15 K | 2.24 | 1.68 | 1.21 | 0.76 | 0.52 | 0.34 | 0.32 | 0.41 | 0.6 | 0.76
308.15 K | 1.89 | 1.41 | 1.05 | 0.66 | 0.44 | 0.27 | 0.24 | 0.33 | 0.52 | 0.7
313.15 K | 1.55 | 1.17 | 0.87 | 0.55 | 0.37 | 0.22 | 0.19 | 0.28 | 0.46 | 0.64
318.15 K | 1.28 | 0.98 | 0.75 | 0.49 | 0.32 | 0.18 | 0.16 | 0.24 | 0.42 | 0.59
323.15 K | 1.09 | 0.84 | 0.65 | 0.42 | 0.26 | 0.14 | – | 0.2 | 0.38 | 0.53

CCC(C)N (configuration not stated) + CCOCCO
308.15 K, 101 kPa
Settings | viscosity [mPa·s]
x2 = 0.1045 | 0.5211
x2 = 0.208 | 0.6419
x2 = 0.3105 | 0.7668
x2 = 0.412 | 0.8957
x2 = 0.5124 | 1.016
x2 = 0.6188 | 1.13
x2 = 0.7103 | 1.217
x2 = 0.8078 | 1.304
x2 = 0.9043 | 1.385
